Data on 15 molecules can be found in US12577245B2, “Sulfonyl benzamide derivatives as Bcl-2 inhibitors” (ASCENTAGE PHARMA (SUZHOU) CO., LTD., priority 2021, dated 2026).

For the assay, the target named is Bcl-2 G101V (Homo sapiens, UniProt P10415, G101V). The assay is described as follows: Bcl-2 G101V inhibition, fluorescence polarization (Flu-BIM tracer) binding assay. The note with it: FP; 20 nM Bcl2, 5 nM Flu-BIM, 1 h incubation; read-out: Bcl-2 G101V (FP). Background: In fluorescence polarisation assays a small probe gives low polarisation when free and higher when bound to something large.
Turning to `CC1(C)CCC(CN2CCN(c3ccc(C(=O)NS(=O)(=O)c4ccc(NC[C@H]5CC[C@](C)(O)CC5)c([N+](=O)[O-])c4)c(Oc4cnc5[nH]ccc5c4)c3)CC2)=C(c2cc(-c3ccc(C(C)(C)C#N)cc3)cs2)C1` [Example 56, 2-((1H-pyrrolo[2,3-b]pyridin-5-yl)oxy)-4-(4-((2-(4-(4-(2-cyanopropan-2-yl)phenyl)thiophen-2-yl)-4,4-dimethylcyclohex-1-en-1-yl)methyl)piperazin-1-yl)-N-((4-((((1r,4r)-4-hydroxy-4-methylcyclohexyl)methyl)amino)-3-nitrophenyl)sulfonyl)benzamide], the IC50 amounted to 0.0276 µM.

In the case of `CN(C)c1ccccc1-c1csc(C2=C(CN3CCN(c4ccc(C(=O)NS(=O)(=O)c5ccc(NC[C@H]6COCCO6)c([N+](=O)[O-])c5)c(Oc5cnc6[nH]ccc6c5)c4)CC3)CCC(C)(C)C2)c1` [Example 58, (S)—N-((4-(((1,4-dioxan-2-yl)methyl)amino)-3-nitrophenyl)sulfonyl)-2-((1H-pyrrolo[2,3-b]pyridin-5-yl)oxy)-4-(4-((2-(4-(2-(dimethylamino)phenyl)thiophen-2-yl)-4,4-dimethylcyclohex-1-en-1-yl)methyl)piperazin-1-yl)benzamide], the IC50 was found to be 0.0341 µM.

Regarding `CC1(C)CCC(CN2CCN(c3ccc(C(=O)NS(=O)(=O)c4ccc(NC[C@H]5CC[C@](C)(O)CC5)c([N+](=O)[O-])c4)c(Oc4cnc5[nH]ccc5c4)c3)CC2)=C(c2cc(-c3ccc(C(C)(C)O)cc3)cs2)C1` [Example 59, 2-((1H-pyrrolo[2,3-b]pyridin-5-yl)oxy)-N-((4-((((1r,4r)-4-hydroxy-4-methylcyclohexyl)methyl)amino)-3-nitrophenyl)sulfonyl)-4-(4-((2-(4-(4-(2-hydroxypropan-2-yl)phenyl)thiophen-2-yl)-4,4-dimethylcyclohex-1-en-1-yl)methyl)piperazin-1-yl)benzamide], the IC50 was 0.0385 µM.

With `CC1(C)CCC(CN2CCN(c3ccc(C(=O)NS(=O)(=O)c4ccc(NC[C@H]5CC[C@](C)(O)CC5)c([N+](=O)[O-])c4)c(Oc4cnc5[nH]ccc5c4)c3)CC2)=C(c2cc(-c3ccc(C(O)(C(F)(F)F)C(F)(F)F)cc3)cs2)C1` [Example 60, 2-((1H-pyrrolo[2,3-b]pyridin-5-yl)oxy)-4-(4-((2-(4-(4-(1,1,1,3,3,3-hexafluoro-2-hydroxypropan-2-yl)phenyl)thiophen-2-yl)-4,4-dimethylcyclohex-1-en-1-yl)methyl)piperazin-1-yl)-N-((4-((((1r,4r)-4-hydroxy-4-methylcyclohexyl)methyl)amino)-3-nitrophenyl)sulfonyl)benzamide], the IC50 was 0.0341 µM.

On to `CC1(C)CCC(CN2CCN(c3ccc(C(=O)NS(=O)(=O)c4ccc(NC[C@H]5CC[C@](C)(O)CC5)c([N+](=O)[O-])c4)c(Oc4cnc5[nH]ccc5c4)c3)CC2)=C(c2cc(-c3ccc(C(C)(C)O)cc3F)cs2)C1` [Example 62, 2-((1H-pyrrolo[2,3-b]pyridin-5-yl)oxy)-4-(4-((2-(4-(2-fluoro-4-(2-hydroxypropan-2-yl)phenyl)thiophen-2-yl)-4,4-dimethylcyclohex-1-en-1-yl)methyl)piperazin-1-yl)-N-((4-((((1r,4r)-4-hydroxy-4-methylcyclohexyl)methyl)amino)-3-nitrophenyl)sulfonyl)benzamide], for which the IC50 was determined as 0.0237 µM.

Turning to `CC1(C)CCC(CN2CCN(c3ccc(C(=O)NS(=O)(=O)c4ccc(NC[C@H]5CC[C@](C)(O)CC5)c([N+](=O)[O-])c4)c(Oc4cnc5[nH]ccc5c4)c3)CC2)=C(c2cc(-c3c(F)cc(C(C)(C)O)cc3F)cs2)C1` [Example 63, 2-((1H-pyrrolo[2,3-b]pyridin-5-yl)oxy)-4-(4-((2-(4-(2,6-difluoro-4-(2-hydroxypropan-2-yl)phenyl)thiophen-2-yl)-4,4-dimethylcyclohex-1-en-1-yl)methyl)piperazin-1-yl)-N-((4-((((1r,4r)-4-hydroxy-4-methylcyclohexyl)methyl)amino)-3-nitrophenyl)sulfonyl)benzamide], the IC50 was found to be 0.0323 µM.

In the case of `CC1(C)CCC(CN2CCN(c3ccc(C(=O)NS(=O)(=O)c4ccc(NC[C@H]5COCCO5)c([N+](=O)[O-])c4)c(Oc4cnc5[nH]ccc5c4)c3)CC2)=C(c2cc(-c3c(F)cc(C(C)(C)O)cc3F)cs2)C1` [Example 64, (S)—N-((4-(((1,4-dioxan-2-yl)methyl)amino)-3-nitrophenyl)sulfonyl)-2-((1H-pyrrolo[2,3-b]pyridin-5-yl)oxy)-4-(4-((2-(4-(2,6-difluoro-4-(2-hydroxypropan-2-yl)phenyl)thiophen-2-yl)-4,4-dimethylcyclohex-1-en-1-yl)methyl)piperazin-1-yl)benzamide], the IC50 was 0.037 µM.

Consider `CCC(O)(CC)c1cc(F)c(-c2csc(C3=C(CN4CCN(c5ccc(C(=O)NS(=O)(=O)c6ccc(NC[C@H]7CC[C@](C)(O)CC7)c([N+](=O)[O-])c6)c(Oc6cnc7[nH]ccc7c6)c5)CC4)CCC(C)(C)C3)c2)c(F)c1` [Example 67, 2-((1H-pyrrolo[2,3-b]pyridin-5-yl)oxy)-4-(4-((2-(4-(2,6-difluoro-4-(3-hydroxypentan-3-yl)phenyl)thiophen-2-yl)-4,4-dimethylcyclohex-1-en-1-yl)methyl)piperazin-1-yl)-N-((4-((((1r,4r)-4-hydroxy-4-methylcyclohexyl)methyl)amino)-3-nitrophenyl)sulfonyl)benzamide], for which the IC50 is 0.0337 µM.

Turning to `[2H]C([2H])([2H])C(O)(c1cc(F)c(-c2csc(C3=C(CN4CCN(c5ccc(C(=O)NS(=O)(=O)c6ccc(NC[C@H]7CC[C@](C)(O)CC7)c([N+](=O)[O-])c6)c(Oc6cnc7[nH]ccc7c6)c5)CC4)CCC(C)(C)C3)c2)c(F)c1)C([2H])([2H])[2H]` [Example 68, 2-((1H-pyrrolo[2,3-b]pyridin-5-yl)oxy)-4-(4-((2-(4-(2,6-difluoro-4-(2-hydroxypropan-2-yl-1,1,1,3,3,3-d6)phenyl)thiophen-2-yl)-4,4-dimethylcyclohex-1-en-1-yl)methyl)piperazin-1-yl)-N-((4-((((1r,4r)-4-hydroxy-4-methylcyclohexyl)methyl)amino)-3-nitrophenyl)sulfonyl)benzamide], the IC50 was 0.0278 µM.

For `CC1(C)CCC(CN2CCN(c3ccc(C(=O)NS(=O)(=O)c4ccc(NC[C@H]5CC[C@](C)(O)CC5)c([N+](=O)[O-])c4)c(Oc4cnc5[nH]ccc5c4)c3)CC2)=C(c2cc(-c3c(F)cc(C(C)(O)C4CC4)cc3F)cs2)C1` (stereo partly drawn) [Example 69, 2-((1H-pyrrolo[2,3-b]pyridin-5-yl)oxy)-4-(4-((2-(4-(4-(1-cyclopropyl-1-hydroxyethyl)-2,6-difluorophenyl)thiophen-2-yl)-4,4-dimethylcyclohex-1-en-1-yl)methyl)piperazin-1-yl)-N-((4-((((1r,4r)-4-hydroxy-4-methylcyclohexyl)methyl)amino)-3-nitrophenyl)sulfonyl)benzamide], the IC50 worked out at 0.029 µM.

Consider `CC1(C)CCC(CN2CCN(c3ccc(C(=O)NS(=O)(=O)c4ccc(NC[C@H]5CC[C@](C)(O)CC5)c([N+](=O)[O-])c4)c(Oc4cnc5[nH]ccc5c4)c3)CC2)=C(c2cc(-c3cccc(C(C)(C)O)c3)cs2)C1` [Example 70, 2-((1H-pyrrolo[2,3-b]pyridin-5-yl)oxy)-N-((4-((((1r,4r)-4-hydroxy-4-methylcyclohexyl)methyl)amino)-3-nitrophenyl)sulfonyl)-4-(4-((2-(4-(3-(2-hydroxypropan-2-yl)phenyl)thiophen-2-yl)-4,4-dimethylcyclohex-1-en-1-yl)methyl)piperazin-1-yl)benzamide], for which the IC50 is 0.0369 µM.

Consider `CC1(C)CCC(CN2CCN(c3ccc(C(=O)NS(=O)(=O)c4ccc(NC[C@H]5CC[C@](C)(O)CC5)c([N+](=O)[O-])c4)c(Oc4cnc5[nH]ccc5c4)c3)CC2)=C(c2cc(-c3ccc(C(C)(C)O)c(F)c3)cs2)C1` [Example 71, 2-((1H-pyrrolo[2,3-b]pyridin-5-yl)oxy)-4-(4-((2-(4-(3-fluoro-4-(2-hydroxypropan-2-yl)phenyl)thiophen-2-yl)-4,4-dimethylcyclohex-1-en-1-yl)methyl)piperazin-1-yl)-N-((4-((((1r,4r)-4-hydroxy-4-methylcyclohexyl)methyl)amino)-3-nitrophenyl)sulfonyl)benzamide], for which the IC50 amounted to 0.0203 µM.

On to `CC(CO)c1ccc(-c2csc(C3=C(CN4CCN(c5ccc(C(=O)NS(=O)(=O)c6ccc(NC[C@H]7CC[C@](C)(O)CC7)c([N+](=O)[O-])c6)c(Oc6cnc7[nH]ccc7c6)c5)CC4)CCC(C)(C)C3)c2)c(F)c1` (stereo partly drawn) [Example 72, 2-((1H-pyrrolo[2,3-b]pyridin-5-yl)oxy)-4-(4-((2-(4-(2-fluoro-4-(1-hydroxypropan-2-yl)phenyl)thiophen-2-yl)-4,4-dimethylcyclohex-1-en-1-yl)methyl)piperazin-1-yl)-N-((4-((((1r,4r)-4-hydroxy-4-methylcyclohexyl)methyl)amino)-3-nitrophenyl)sulfonyl)benzamide], for which the IC50 amounted to 0.027 µM.

Regarding `CC(C)(O)Cc1ccc(-c2csc(C3=C(CN4CCN(c5ccc(C(=O)NS(=O)(=O)c6ccc(NC[C@H]7CC[C@](C)(O)CC7)c([N+](=O)[O-])c6)c(Oc6cnc7[nH]ccc7c6)c5)CC4)CCC(C)(C)C3)c2)c(F)c1` [Example 73, 2-((1H-pyrrolo[2,3-b]pyridin-5-yl)oxy)-4-(4-((2-(4-(2-fluoro-4-(2-hydroxy-2-methylpropyl)phenyl)thiophen-2-yl)-4,4-dimethylcyclohex-1-en-1-yl)methyl)piperazin-1-yl)-N-((4-((((1r,4r)-4-hydroxy-4-methylcyclohexyl)methyl)amino)-3-nitrophenyl)sulfonyl)benzamide], the IC50 is 0.0252 µM.

Regarding `CC1(C)CCC(CN2CCN(c3ccc(C(=O)NS(=O)(=O)c4ccc(NC[C@H]5CC[C@](C)(O)CC5)c([N+](=O)[O-])c4)c(Oc4cnc5[nH]ccc5c4)c3)CC2)=C(c2cc(-c3c(F)cc(C(C)(C)CO)cc3F)cs2)C1` [Example 74, 2-((1H-pyrrolo[2,3-b]pyridin-5-yl)oxy)-4-(4-((2-(4-(2,6-difluoro-4-(1-hydroxy-2-methylpropan-2-yl)phenyl)thiophen-2-yl)-4,4-dimethylcyclohex-1-en-1-yl)methyl)piperazin-1-yl)-N-((4-((((1r,4r)-4-hydroxy-4-methylcyclohexyl)methyl)amino)-3-nitrophenyl)sulfonyl)benzamide], the IC50 came to 0.0302 µM.
